Data published in PMC10528299, “Targeting FAK/PYK2 with SJP1602 for Anti-Tumor Activity in Triple-Negative Breast Cancer” (Current Issues in Molecular Biology, 2023).

Experiments:
FAK = biological target: T1, FAK (Homo sapiens, UniProt Q05397); assay: ADP-Glo kinase assay FAK; type: biochemical; conditions: mean ± SEM (n = 3)
T1 construct: purchased Promega V1971
Method: (§1) The kinase assays were performed and quantified according to the manufacturer’s instructions using the ADP-Glo™ Kinase Assay Kit for FAK (Promega, V1971), PYK2 (Promega, V4083) and InsR (Promega, V3901). Each kinase reaction mixture was prepared to contain the compounds of interest. After thorough pipetting, 25 μL of the mixture was added to each well and incubated for 1 h at room temperature. Subsequently, 25 μL of ADP-Glo reagent was added, followed by a 40 m incubation at room temperature. Next, 50 μL of the kinase detection reagent was added, and the mixture was incubated for an additional 30 m at room temperature. Luminescence was measured using the Tecan Spark 10M (Integration time: 1 s) (Männedorf, Switzerland).

PYK2 = biological target: T2, PYK2 (Homo sapiens, UniProt Q14289); assay: ADP-Glo kinase assay PYK2; type: biochemical; conditions: mean ± SEM (n = 3)
T2 construct: purchased Promega V4083
T2 sequence (Q14289 whole entry): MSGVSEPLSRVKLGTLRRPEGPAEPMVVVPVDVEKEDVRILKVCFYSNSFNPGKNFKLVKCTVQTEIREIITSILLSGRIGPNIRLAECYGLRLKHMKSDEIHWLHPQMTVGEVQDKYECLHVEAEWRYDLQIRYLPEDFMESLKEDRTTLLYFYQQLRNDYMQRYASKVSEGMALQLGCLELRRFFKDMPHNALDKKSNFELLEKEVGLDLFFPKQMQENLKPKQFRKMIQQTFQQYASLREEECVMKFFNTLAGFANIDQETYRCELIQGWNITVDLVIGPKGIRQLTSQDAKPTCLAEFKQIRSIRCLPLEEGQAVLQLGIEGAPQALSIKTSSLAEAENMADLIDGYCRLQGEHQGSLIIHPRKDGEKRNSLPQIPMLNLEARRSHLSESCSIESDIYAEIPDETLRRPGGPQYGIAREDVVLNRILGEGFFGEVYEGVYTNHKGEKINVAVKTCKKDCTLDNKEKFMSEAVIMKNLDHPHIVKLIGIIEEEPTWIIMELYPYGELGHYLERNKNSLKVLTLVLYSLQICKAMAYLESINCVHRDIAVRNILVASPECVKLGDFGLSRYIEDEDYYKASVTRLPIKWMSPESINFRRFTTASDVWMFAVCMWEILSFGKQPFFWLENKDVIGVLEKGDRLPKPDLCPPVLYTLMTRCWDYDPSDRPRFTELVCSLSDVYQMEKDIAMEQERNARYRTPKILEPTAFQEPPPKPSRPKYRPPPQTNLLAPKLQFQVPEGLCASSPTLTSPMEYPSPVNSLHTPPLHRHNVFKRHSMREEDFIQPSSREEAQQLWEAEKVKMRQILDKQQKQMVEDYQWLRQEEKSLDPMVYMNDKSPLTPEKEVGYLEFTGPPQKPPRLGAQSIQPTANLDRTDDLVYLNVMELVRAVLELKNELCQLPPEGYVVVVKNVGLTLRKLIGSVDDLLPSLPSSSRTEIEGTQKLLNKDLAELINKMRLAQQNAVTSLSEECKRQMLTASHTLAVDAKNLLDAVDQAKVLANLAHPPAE
Method: as §1

[1] = biological target: T3, FAK [pY397] in MDA-MB-231 cells (Homo sapiens, UniProt Q05397); assay: FAK [pY397] ELISA in MDA-MB-231 cells; type: cell-based; conditions: MDA-MB-231, 1 h treatment, mean ± SEM (n = 3); read-out: IC50 FAK phosphorylation (pY397 ELISA)
T3 construct: endogenous in cells; host or cells: MDA-MB-231
T3 sequence (Q05397 whole entry): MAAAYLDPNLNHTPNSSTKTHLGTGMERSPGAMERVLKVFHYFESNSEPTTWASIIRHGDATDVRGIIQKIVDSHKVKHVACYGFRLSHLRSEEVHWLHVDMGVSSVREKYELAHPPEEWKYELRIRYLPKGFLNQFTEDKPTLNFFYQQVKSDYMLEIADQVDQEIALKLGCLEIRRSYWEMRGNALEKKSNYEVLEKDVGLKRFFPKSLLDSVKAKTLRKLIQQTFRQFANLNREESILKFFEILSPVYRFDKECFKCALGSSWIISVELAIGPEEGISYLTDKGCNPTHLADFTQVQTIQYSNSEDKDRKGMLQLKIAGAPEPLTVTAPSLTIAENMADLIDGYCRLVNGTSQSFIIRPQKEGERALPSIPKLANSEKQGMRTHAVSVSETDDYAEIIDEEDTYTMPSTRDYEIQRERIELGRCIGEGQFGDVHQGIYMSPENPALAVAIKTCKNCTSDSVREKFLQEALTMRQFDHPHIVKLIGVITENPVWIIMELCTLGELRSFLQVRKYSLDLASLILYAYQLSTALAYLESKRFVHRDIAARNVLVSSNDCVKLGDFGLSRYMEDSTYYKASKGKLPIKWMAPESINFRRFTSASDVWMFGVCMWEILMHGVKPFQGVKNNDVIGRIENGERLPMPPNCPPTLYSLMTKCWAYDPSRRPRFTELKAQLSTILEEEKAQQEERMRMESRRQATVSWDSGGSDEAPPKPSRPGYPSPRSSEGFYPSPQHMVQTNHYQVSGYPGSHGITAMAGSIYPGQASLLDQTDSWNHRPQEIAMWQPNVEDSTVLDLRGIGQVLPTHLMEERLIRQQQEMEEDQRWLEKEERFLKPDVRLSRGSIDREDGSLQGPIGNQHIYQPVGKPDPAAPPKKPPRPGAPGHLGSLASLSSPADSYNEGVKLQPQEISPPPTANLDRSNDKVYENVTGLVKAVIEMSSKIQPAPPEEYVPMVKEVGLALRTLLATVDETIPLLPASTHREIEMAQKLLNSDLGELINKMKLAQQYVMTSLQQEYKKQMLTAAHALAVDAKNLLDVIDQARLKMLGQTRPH
Method: (§2) TNBC cells were seeded into 60 mm dishes at a density of 1 × 10^6 cells/dish in 5 mL of culture media. After 24 h, cells were treated with concentrations ranging from 1 nM to 10 μM of SJP1602 for 1 h, and cell lysates were prepared to detect phospho-FAK levels. The FAK [pY397] enzyme-linked immunosorbent assay was performed according to the manufacturer’s instructions. The absorbance at 450 nm was measured to quantify the results.

[2] = biological target: T4, FAK [pY397] in MDA-MB-453 cells (Homo sapiens, UniProt Q05397); assay: FAK [pY397] ELISA in MDA-MB-453 cells; type: cell-based; conditions: MDA-MB-453, 1 h treatment, mean ± SEM (n = 3); read-out: IC50 FAK phosphorylation (pY397 ELISA)
T4 construct: endogenous in cells; host or cells: MDA-MB-453
T4 sequence (Q05397 whole entry): as above
Method: as §2

[3] = biological target: T5, FAK [pY397] in HCC70 cells (Homo sapiens, UniProt Q05397); assay: FAK [pY397] ELISA in HCC70 cells; type: cell-based; conditions: HCC70, 1 h treatment, mean ± SEM (n = 3); read-out: IC50 FAK phosphorylation (pY397 ELISA)
T5 construct: endogenous in cells; host or cells: HCC70
T5 sequence (Q05397 whole entry): as above
Method: as §2

MDA-MB-231 cells [4] = assay: Colony formation assay; type: cell-based, human; conditions: 1 μM or 2 μM, 11 days
Method: MDA-MB-231 cells were seeded at 2.5 × 10^2 cells/well in 12-well plates. FAK inhibitors (SJP1602, VS-6063, GSK2256098) were added 24 h post seeding without changing the media. After 7 days, the cells were replaced with fresh media containing 10% FBS and the same initial concentration of the FAK inhibitor. After 11 days, the cells were fixed with 4% PFA for 10 m at room temperature and stained with 0.5% crystal violet dissolved in 25% methanol for 20 min at room temperature. The cells were then washed with distilled water, dried, and images of the entire plate were obtained.

MDA-MB-231 cells [5] = assay: 2D cell invasion assay (Boyden chamber, Matrigel); type: cell-based, human; conditions: 5 μM, 48 h, Matrigel-coated Boyden chamber
Method: Cell invasion capacity was analyzed using the Boyden chamber assay. The 24-well Boyden chambers with Matrigel-coated filters (8 μm pore size) were obtained from Becton-Dickinson (San Diego, CA, USA). Cells treated with vehicle or FAK inhibitors (SJP1602, VS-6063, GSK2256098) at a concentration of 5 μM were resuspended in serum-free media and 5 × 10^5 cells were added to the Matrigel-coated upper compartment of the invasion chambers. Fresh culture medium with 5% FBS was added to the lower compartment. After 48 h, cells on the upper side of the filter were removed using cotton swabs. The underside of the filter was fixed in 100% methanol, washed in PBS, and stained using crystal violet. Cells that invaded the Matrigel were analyzed using a microscope (Nikon, TE2000). Image analysis was performed using the color analysis function in Adobe Photoshop 2021 (Version 22.4.2, Adobe, Adobe (San Jose, CA, USA)). Quantitative data were obtained from color measurement records in Adobe Photoshop 2021.

[6] = tested on: MDA-MB-231, 4T1, and Hs578T cells; assay: 3D cell invasion assay; type: cell-based; conditions: 1 µM, 72 h, compared to VS-6063 and GSK 2256098
Method: Cells were added to an ultra-low 96-well round-bottom plate at a density of 5 × 10^3 cells/well and cultured for 3 days to form spheroids. The medium was removed, and a mixture of neutralized Type I Collagen and Matrigel was added to the wells. After 1 h of incubation, compound concentrations (2×) in 100 μL of solution were added per well. The plate was then incubated for 72 h. Relative invasion was quantified based on the following formula using the microscope and imaging software ImageJ (Version 2.1.0/1.54e, National Institutes of Health, Bethesda, MD, USA):Relative invasion = (total area of compound treated group − spheroid area of compound treated group/(total area of control − spheroid area of control)(1)

[7] = Cytotoxicity on normal cell line CCD-18Co; type: cell-based; conditions: human, CCD-18Co cells (normal cell line); read-out: Cytotoxicity on Normal Cell Lines IC50
[8] = Toxicity and body weight in xenograft mice; conditions: mouse xenograft experiments, 20-80 mg/kg po daily
Method: Upon establishment of tumors, with an average tumor volume reaching approximately 100 mm^3, mice were grouped and subjected to daily oral dosing. […] The duration of drug administration was defined for 2 weeks based on the growth rate of the vehicle group of each xenografted tumor. The tumor volume was measured three times a week for potency measurement, and the body weight of mice was also measured three times a week for toxicity evaluation in vivo.

T1 sequence (Q05397 whole entry): as above

CNC(=O)c1cccc(C)c1Nc1nc(Nc2ccc(N3CCN(C4C5CC6CC4CC(O)(C6)C5)CC3)cc2OC)ncc1C(F)(F)F (stereo not shown) [SJP1602, 2-((2-((4-(4-((2s,5r)-5-hydroxyadamantan-2-yl)piperazin-1-yl)-2-methoxyphenyl)amino)-5-(trifluoromethyl)pyrimidin-4-yl)amino)-N,3-dimethylbenzamide]
IC50 (FAK): 3.7 ± 0.007 nM
IC50 (PYK2): 24.7 ± 0.919 nM
IC50 [1]: 20 ± 7 nM
IC50 [2]: 43 ± 16 nM
IC50 [3]: 83 ± 17 nM
formation of MDA-MB-231 colonies (MDA-MB-231 cells [4]): dose-dependent decrease
invasion of MDA-MB-231 cells (MDA-MB-231 cells [5]): markedly inhibited
TNBC cell invasion (3D) [6]: significantly inhibits
IC50 [7]: > 10000 nM
signs of toxicity or weight loss in xenograft mice [8]: no signs of toxicity or significant weight loss
